ChEMBL document CHEMBL1139969, “Novel and potent 3-(2,3-dichlorophenyl)-4-(benzyl)-4H-1,2,4-triazole P2X7 antagonists” (Bioorg Med Chem Lett, 2007)
pIC50: −log10 of the molar value. Active and inactive are the calls of the source. No cut-off for these calls is given here.

Assays:
P2X purinoceptor 7 [1] = target: T1, P2X purinoceptor 7 (Rattus norvegicus, UniProt Q64663); assay: Antagonist activity at rat recombinant P2X7 receptor; assay type: functional
T1 sequence (Q64663 whole entry): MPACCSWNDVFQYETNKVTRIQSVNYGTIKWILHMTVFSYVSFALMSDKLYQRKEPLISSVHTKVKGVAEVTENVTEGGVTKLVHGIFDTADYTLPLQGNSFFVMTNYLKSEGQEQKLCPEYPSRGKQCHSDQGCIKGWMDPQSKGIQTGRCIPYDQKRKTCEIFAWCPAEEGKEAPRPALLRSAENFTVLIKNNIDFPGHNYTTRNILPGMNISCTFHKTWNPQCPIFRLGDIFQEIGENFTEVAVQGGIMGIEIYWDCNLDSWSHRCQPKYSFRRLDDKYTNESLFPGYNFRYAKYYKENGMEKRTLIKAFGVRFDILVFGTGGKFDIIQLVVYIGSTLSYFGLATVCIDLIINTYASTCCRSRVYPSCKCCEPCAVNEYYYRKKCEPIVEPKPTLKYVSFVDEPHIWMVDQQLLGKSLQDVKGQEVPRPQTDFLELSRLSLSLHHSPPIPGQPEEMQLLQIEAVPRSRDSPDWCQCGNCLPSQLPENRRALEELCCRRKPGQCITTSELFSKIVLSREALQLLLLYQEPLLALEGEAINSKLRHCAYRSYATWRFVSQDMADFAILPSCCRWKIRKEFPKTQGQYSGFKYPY

THP-1 = assay: Inhibition of IL1-beta release from THP1 cells; assay type: functional, cell-based; settings: Homo sapiens
P2X purinoceptor 7 [2] = target: T2, P2X purinoceptor 7 (Homo sapiens, UniProt Q99572); assay: Antagonist activity at human recombinant P2X7 receptor; assay type: functional
T2 sequence (Q99572 whole entry): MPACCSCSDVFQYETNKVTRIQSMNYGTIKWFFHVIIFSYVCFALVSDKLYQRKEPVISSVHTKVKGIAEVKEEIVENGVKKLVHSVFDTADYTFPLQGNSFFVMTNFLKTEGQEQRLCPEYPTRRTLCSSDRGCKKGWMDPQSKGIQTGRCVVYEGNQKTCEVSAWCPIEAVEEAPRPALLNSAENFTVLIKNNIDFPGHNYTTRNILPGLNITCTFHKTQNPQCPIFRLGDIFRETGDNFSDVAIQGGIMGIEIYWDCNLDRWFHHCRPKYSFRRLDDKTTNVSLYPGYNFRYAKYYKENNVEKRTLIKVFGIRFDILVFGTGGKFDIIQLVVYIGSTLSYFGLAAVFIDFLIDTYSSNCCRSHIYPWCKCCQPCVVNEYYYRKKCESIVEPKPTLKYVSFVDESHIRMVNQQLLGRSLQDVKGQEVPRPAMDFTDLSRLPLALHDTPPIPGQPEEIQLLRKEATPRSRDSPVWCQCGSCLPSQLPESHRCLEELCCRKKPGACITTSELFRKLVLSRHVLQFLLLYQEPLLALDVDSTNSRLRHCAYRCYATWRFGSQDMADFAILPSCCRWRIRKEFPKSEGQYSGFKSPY

[3] = Clearance in rat at 5 umol/kg, iv; assay type: ADME, organism-based; settings: in vivo
[4] = Cmax in rat at 5 umol/kg, ip; assay type: ADME, organism-based; parameters: dose 5 umol/kg, route intraperitoneal; settings: in vivo
[5] = target: T3, P2X purinoceptor 2 (Homo sapiens) (UniProt Q9UBL9); assay: Antagonist activity at human P2X2 receptor at 10 uM; assay type: functional
T3 sequence (whole entry): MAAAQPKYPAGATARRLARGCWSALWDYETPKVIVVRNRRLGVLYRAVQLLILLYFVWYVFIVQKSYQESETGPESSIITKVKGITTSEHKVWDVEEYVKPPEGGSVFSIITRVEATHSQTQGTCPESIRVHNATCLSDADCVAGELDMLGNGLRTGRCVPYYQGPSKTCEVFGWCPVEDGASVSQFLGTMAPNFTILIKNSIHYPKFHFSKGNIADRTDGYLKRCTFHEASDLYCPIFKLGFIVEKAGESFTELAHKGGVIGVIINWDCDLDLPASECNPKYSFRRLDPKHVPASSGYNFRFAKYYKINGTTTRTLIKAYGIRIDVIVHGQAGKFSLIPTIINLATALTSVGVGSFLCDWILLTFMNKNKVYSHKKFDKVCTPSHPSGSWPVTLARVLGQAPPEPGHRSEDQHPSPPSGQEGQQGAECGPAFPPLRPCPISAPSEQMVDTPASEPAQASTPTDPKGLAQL

[6] = target: P2Y purinoceptor 1 (Homo sapiens) (UniProt P47900); assay: Activity at human P2Y1 receptor at 10 uM
Sequence of P2Y purinoceptor 1 (Homo sapiens) (P47900 whole entry): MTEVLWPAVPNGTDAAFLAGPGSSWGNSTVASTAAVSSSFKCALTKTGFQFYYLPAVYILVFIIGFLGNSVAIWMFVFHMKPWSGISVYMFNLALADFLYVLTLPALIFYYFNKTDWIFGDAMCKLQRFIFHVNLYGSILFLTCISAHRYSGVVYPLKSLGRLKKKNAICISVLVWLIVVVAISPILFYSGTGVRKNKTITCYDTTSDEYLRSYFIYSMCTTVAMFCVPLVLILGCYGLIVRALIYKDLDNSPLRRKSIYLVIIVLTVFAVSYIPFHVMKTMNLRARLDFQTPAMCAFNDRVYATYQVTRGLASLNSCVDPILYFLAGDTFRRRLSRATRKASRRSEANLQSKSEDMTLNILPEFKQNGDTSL

[7] = target: P2Y purinoceptor 2 (Homo sapiens) (UniProt P41231); assay: Activity at human P2Y2 receptor at 10 uM
Sequence of P2Y purinoceptor 2 (Homo sapiens) (P41231 whole entry): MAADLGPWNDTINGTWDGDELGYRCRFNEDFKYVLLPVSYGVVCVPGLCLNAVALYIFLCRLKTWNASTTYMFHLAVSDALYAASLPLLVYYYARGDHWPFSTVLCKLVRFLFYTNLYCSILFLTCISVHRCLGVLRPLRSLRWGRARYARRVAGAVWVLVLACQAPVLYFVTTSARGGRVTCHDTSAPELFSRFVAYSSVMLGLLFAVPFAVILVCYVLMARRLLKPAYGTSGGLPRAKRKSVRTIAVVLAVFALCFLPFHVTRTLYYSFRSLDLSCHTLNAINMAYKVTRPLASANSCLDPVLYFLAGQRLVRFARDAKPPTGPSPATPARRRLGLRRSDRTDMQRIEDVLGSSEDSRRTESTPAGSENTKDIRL

[8] = Oral bioavailability in rat at 5 umol/kg; assay type: ADME, organism-based; settings: in vivo
[9] = Tmax in rat at 5 umol/kg, ip; assay type: ADME, organism-based; settings: in vivo
Homo sapiens = organism: Homo sapiens; assay: Activity at human P2X2/3 receptor at 10 uM
[10] = target: T4, P2X purinoceptor 1 (Homo sapiens) (UniProt P51575); assay: Activity at human P2X1 receptor at 10 uM
T4 sequence (whole entry): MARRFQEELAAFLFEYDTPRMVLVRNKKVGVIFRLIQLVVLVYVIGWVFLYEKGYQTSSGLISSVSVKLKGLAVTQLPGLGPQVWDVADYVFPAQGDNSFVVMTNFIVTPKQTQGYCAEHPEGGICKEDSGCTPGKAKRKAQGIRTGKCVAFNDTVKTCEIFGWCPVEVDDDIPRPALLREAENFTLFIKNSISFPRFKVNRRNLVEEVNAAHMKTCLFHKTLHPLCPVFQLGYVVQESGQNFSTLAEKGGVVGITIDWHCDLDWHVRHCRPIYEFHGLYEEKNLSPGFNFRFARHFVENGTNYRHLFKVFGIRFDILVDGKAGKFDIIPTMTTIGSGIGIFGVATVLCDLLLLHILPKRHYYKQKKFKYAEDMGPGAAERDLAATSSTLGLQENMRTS

[11] = target: T5, P2X purinoceptor 4 (Homo sapiens) (UniProt Q99571); assay: Activity at human P2X4 receptor at 10 uM
T5 sequence (whole entry): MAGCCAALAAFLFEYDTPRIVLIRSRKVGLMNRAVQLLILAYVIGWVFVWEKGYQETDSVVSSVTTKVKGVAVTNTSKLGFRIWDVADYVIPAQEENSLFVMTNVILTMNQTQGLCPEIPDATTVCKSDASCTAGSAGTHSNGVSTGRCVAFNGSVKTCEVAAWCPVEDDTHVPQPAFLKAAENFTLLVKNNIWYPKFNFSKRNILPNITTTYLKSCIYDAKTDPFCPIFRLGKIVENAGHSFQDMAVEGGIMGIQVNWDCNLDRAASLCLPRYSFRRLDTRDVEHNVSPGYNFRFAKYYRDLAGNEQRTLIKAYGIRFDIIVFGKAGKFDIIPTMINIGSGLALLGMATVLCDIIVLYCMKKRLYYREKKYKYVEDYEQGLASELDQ

[12] = target: Translocator protein (Homo sapiens) (UniProt P30536); assay: Activity at peripheral benzodiazepine receptor at 10 uM
Sequence of Translocator protein (Homo sapiens) (P30536 whole entry): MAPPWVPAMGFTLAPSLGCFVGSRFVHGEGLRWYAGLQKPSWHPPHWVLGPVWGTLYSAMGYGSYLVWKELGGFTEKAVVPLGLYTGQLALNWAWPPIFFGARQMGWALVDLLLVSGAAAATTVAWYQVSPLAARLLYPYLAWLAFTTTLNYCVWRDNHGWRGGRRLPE

Rattus norvegicus = organism: Rattus norvegicus; assay: Antinociceptive activity in rat Chung model of neuropathic pain assessed as reversal of allodynia after 30 mins; assay type: functional
[13] = Bioavailability in ip dosed rat Chung model of neuropathic pain; assay type: ADME, organism-based; settings: in vivo
[14] = Volume of distribution at terminal phase in rat at 5 umol/kg, iv; assay type: ADME, organism-based; settings: in vivo
[15] = Half life in ip dosed rat Chung model of neuropathic pain; assay type: ADME, organism-based; settings: in vivo

| Compound | pIC50 (P2X purinoceptor 7 [2]) | also measured |
| --- | --- | --- |
| Clc1cccc(-c2nnnn2Cc2ccccc2)c1Cl | – | pIC50 (P2X purinoceptor 7 [1]): 7.12; pIC50 (THP-1): 5.60 |
| CC(C)(c1ccccc1)n1cnnc1-c1cccc(Cl)c1Cl | 4.88 | – |
| Clc1cccc(-c2ccnn2Cc2ccccc2)c1Cl | 5.22 | – |
| CS(=O)(=O)c1ccccc1Cn1cnnc1-c1cccc(C(F)(F)F)c1Cl | 6.84 | – |
| Clc1cccc(-c2ncnn2Cc2ccccc2)c1Cl | 6.52 | – |
| Clc1cccc(-c2cncn2Cc2ccccc2)c1Cl | 5.74 | – |
| COc1cccc(Cn2cnnc2-c2cccc(Cl)c2Cl)c1OC | 6.88 | – |
| Clc1ccc(Cn2cnnc2-c2cccc(Cl)c2Cl)c(Cl)c1 | 6.48 | – |
| Clc1cccc(-n2ncnc2Cc2ccccc2)c1Cl | 6.68 | – |
| CSc1ccccc1Cn1cnnc1-c1cccc(C(F)(F)F)c1Cl | 7.57 | – |
| Clc1cccc(-c2cnnn2Cc2ccccc2)c1Cl | 6.22 | – |
| Clc1ccc(Cl)c(Cn2cnnc2-c2cccc(Cl)c2Cl)c1 | 6.86 | – |
| Clc1cccc(-c2nncn2Cc2cccc3ccccc23)c1Cl | 7.23 | – |
| Clc1cccc(-n2nncc2Cc2ccccc2)c1Cl | 6.37 | – |
| Clc1cccc(-c2nncn2[C@@H]2CCc3ccccc32)c1Cl | 7.72 | pIC50 (P2X purinoceptor 7 [1]): 7.11; pIC50 (THP-1): 7.12 |
| CC(c1ccccc1)n1cnnc1-c1cccc(Cl)c1Cl (stereo not given) | 5.98 | – |
| O=C(NCC12CC3CC(CC(C3)C1)C2)c1cccc(Cl)c1Cl | 7.19 | pIC50 (P2X purinoceptor 7 [1]): 6.09 |
| Clc1cccc(-c2nncn2[C@H]2CCc3ccccc32)c1Cl | 7.30 | – |

Further lines, with some results ahead:

| pIC50 (P2X purinoceptor 7 [2]) | Compound | also measured |
| --- | --- | --- |
| 6.04 | Fc1ccc(C(F)(F)F)cc1Cn1cnnc1-c1cccc(Cl)c1Cl | – |
| 6.72 | COc1ccccc1Cn1cnnc1-c1cccc(Cl)c1Cl | – |
| 5.89 | FC(F)(F)c1cccc(Cn2cnnc2-c2cccc(Cl)c2Cl)c1 | – |
| 7.31 | Fc1ccc(C(F)(F)F)c(Cn2cnnc2-c2cccc(Cl)c2Cl)c1 | – |
| 7.11 | Cc1ccccc1Cn1cnnc1-c1cccc(Cl)c1Cl | clearance [3]: 3.1 L/h/kg; Cmax [4]: 0.21 µg/mL; Activity [5]: inactive; Activity [6]: inactive; Activity [7]: inactive; bioavailability [8]: 15%; Tmax [9]: 0.33 h; pIC50 (P2X purinoceptor 7 [1]): 6.68; Activity (Homo sapiens): inactive; Activity [10]: inactive; Activity [11]: inactive; Activity [12]: 86%; Efficacy (Rattus norvegicus): 68%; ED50 (Rattus norvegicus; Rattus norvegicus, 0.5 h): 125 µmol/kg; pIC50 (THP-1): 6.43; bioavailability [13]: 62%; Vd [14]: 1.9 L/kg; half-life [15]: 1.7 h |
| 7.32 | Cc1ccc(F)cc1Cn1cnnc1-c1cccc(Cl)c1Cl | pIC50 (P2X purinoceptor 7 [1]): 6.26; pIC50 (THP-1): 6.62 |
| 5.05 | FC(F)(F)c1ccc(Cn2cnnc2-c2cccc(Cl)c2Cl)cc1 | – |
| 6.28 | Clc1cccc(-c2nncn2Cc2ccccc2)c1Cl | – |
| 7.31 | CSc1ccccc1Cn1cnnc1-c1cccc(Cl)c1Cl | – |
| 6.93 | FC(F)c1ccccc1Cn1cnnc1-c1cccc(Cl)c1Cl | – |
| 6.72 | Clc1cccc(Cn2cnnc2-c2cccc(Cl)c2Cl)c1Cl | – |
| 6.88 | FC(F)(F)c1ccccc1Cn1cnnc1-c1cccc(Cl)c1Cl | – |
| 6.67 | COc1cccc(Cn2cnnc2-c2cccc(Cl)c2Cl)c1 | – |
